Key:
Experiment in all cases: Test C greenhouse herbicide test, pre- and postemergence
Assay type in all cases: in vivo
[1] = system: soybean (Glycine max)
In short: (§1)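 Visual 0–100 injury score (100 = complete control) taken against untreated controls after 13–15 d in greenhouse. Test chemicals, formulated in solvent plus surfactant, applied preemergence to seeds in loam–sand soil or postemergence to 1- to 4-leaf plants (2–18 cm).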

[2] = system: ragweed (common ragweed, Ambrosia elatior)
In short: as §1

[3] = system: barnyardgrass (Echinochloa crus-galli)
In short: as §1

[4] = system: wheat (winter wheat, Triticum aestivum)
In short: as §1

[5] = system: johnsongrass (Sorghum halepense)
In short: as §1

[6] = system: nutsedge, yellow (yellow nutsedge, Cyperus esculentus)
In short: as §1

[7] = system: lambsquarters (Chenopodium album)
In short: as §1

[8] = system: foxtail, giant (giant foxtail, Setaria faberii)
In short: as §1

[9] = system: oilseed rape (Brassica napus)
In short: as §1

[10] = system: waterhemp (common waterhemp, Amaranthus rudis)
In short: as §1

[11] = system: crabgrass, large (large crabgrass, Digitaria sanguinalis)
In short: as §1

[12] = system: galium (catchweed bedstraw, Galium aparine)
In short: as §1

[13] = Postemergence, 31 g ai/ha, 0 to 100 scale (0 no effect, 100 complete control)
[14] = Postemergence, 125 g ai/ha, scale 0 to 100, 0 is no effect, 100 is complete control
[15] = Postemergence, 250 g ai/ha, scale 0 to 100, 0 no effect, 100 complete control, 13 to 15 d
[16] = Preemergence, 62 g ai/ha, scale 0 to 100, 0 is no effect, 100 is complete control
[17] = Preemergence, 125 g ai/ha, scale 0 to 100, 0 is no effect, 100 is complete control
[18] = Preemergence, 250 g ai/ha, scale 0 to 100, 0 no effect, 100 complete control
[19] = postemergence, 62 g ai/ha, scale 0 to 100, 0 no effect, 100 complete control
[20] = Preemergence, 31 g ai/ha, scale 0 to 100, 0 is no effect, 100 is complete control

SMILES: Cc1ccc2ccccc2c1-c1c(O)c(Br)nn(C)c1=O [Compound 23]
- Soybean plant response rating [1, 13]: 5
- Plant response rating, Soybean [1, 14]: 10
- Plant response rating, Soybean [1, 15]: 15
- Plant response rating, Soybean [1, 16]: 0
- Plant response rating, Soybean [1, 17]: 5
- Soybean plant response rating [1, 18]: 55
- Soybean plant response rating [1, 19]: 10
- Ragweed plant response rating [2, 13]: 85
- Plant response rating, Ragweed [2, 14]: 95
- Plant response rating, Ragweed [2, 15]: 98
- Plant response rating, Ragweed [2, 20]: 85
- Plant response rating, Ragweed [2, 16]: 85
- Plant response rating, Ragweed [2, 17]: 95
- Ragweed plant response rating [2, 18]: 90
- Ragweed plant response rating [2, 19]: 90
- Barnyardgrass plant response rating [3, 13]: 40
- Plant response rating, Barnyardgrass [3, 14]: 75
- Plant response rating, Barnyardgrass [3, 15]: 85
- Plant response rating, Barnyardgrass [3, 20]: 10
- Plant response rating, Barnyardgrass [3, 16]: 85
- Plant response rating, Barnyardgrass [3, 17]: 85
- Barnyardgrass plant response rating [3, 18]: 85
- Barnyardgrass plant response rating [3, 19]: 60
- Wheat plant response rating [4, 13]: 10
- Plant response rating, Wheat [4, 14]: 35
- Plant response rating, Wheat [4, 15]: 30
- Plant response rating, Wheat [4, 16]: 85
- Plant response rating, Wheat [4, 17]: 90
- Wheat plant response rating [4, 18]: 90
- Wheat plant response rating [4, 19]: 30
- Johnsongrass plant response rating [5, 13]: 5
- Plant response rating, Johnsongrass [5, 14]: 10
- Plant response rating, Johnsongrass [5, 15]: 40
- Plant response rating, Johnsongrass [5, 20]: 5
- Plant response rating, Johnsongrass [5, 16]: 5
- Plant response rating, Johnsongrass [5, 17]: 35
- Johnsongrass plant response rating [5, 18]: 35
- Johnsongrass plant response rating [5, 19]: 5
- Nutsedge, Yellow plant response rating [6, 13]: 60
- Plant response rating, Nutsedge, Yellow [6, 14]: 85
- Plant response rating, Nutsedge, Yellow [6, 15]: 85
- Plant response rating, Nutsedge, Yellow [6, 20]: 40
- Plant response rating, Nutsedge, Yellow [6, 16]: 90
- Plant response rating, Nutsedge, Yellow [6, 17]: 85
- Nutsedge, Yellow plant response rating [6, 18]: 90
- Nutsedge, Yellow plant response rating [6, 19]: 70
- Lambsquarters plant response rating [7, 13]: 85
- Plant response rating, Lambsquarters [7, 14]: 95
- Plant response rating, Lambsquarters [7, 15]: 98
- Plant response rating, Lambsquarters [7, 20]: 85
- Plant response rating, Lambsquarters [7, 16]: 85
- Plant response rating, Lambsquarters [7, 17]: 95
- Lambsquarters plant response rating [7, 18]: 95
- Lambsquarters plant response rating [7, 19]: 95
- Foxtail, Giant plant response rating [8, 13]: 30
- Plant response rating, Foxtail, Giant [8, 14]: 85
- Plant response rating, Foxtail, Giant [8, 15]: 90
- Plant response rating, Foxtail, Giant [8, 20]: 30
- Plant response rating, Foxtail, Giant [8, 16]: 85
- Plant response rating, Foxtail, Giant [8, 17]: 85
- Foxtail, Giant plant response rating [8, 18]: 100
- Foxtail, Giant plant response rating [8, 19]: 65
- Oilseed Rape plant response rating [9, 13]: 5
- Plant response rating, Oilseed Rape [9, 14]: 45
- Plant response rating, Oilseed Rape [9, 15]: 10
- Plant response rating, Oilseed Rape [9, 20]: 50
- Plant response rating, Oilseed Rape [9, 16]: 90
- Plant response rating, Oilseed Rape [9, 17]: 90
- Oilseed Rape plant response rating [9, 18]: 100
- Oilseed Rape plant response rating [9, 19]: 15
- Waterhemp plant response rating [10, 13]: 80
- Plant response rating, Waterhemp [10, 14]: 85
- Plant response rating, Waterhemp [10, 15]: 98
- Plant response rating, Waterhemp [10, 16]: 100
- Plant response rating, Waterhemp [10, 17]: 100
- Waterhemp plant response rating [10, 18]: 100
- Waterhemp plant response rating [10, 19]: 55
- Crabgrass, Large plant response rating [11, 13]: 5
- Plant response rating, Crabgrass, Large [11, 14]: 35
- Plant response rating, Crabgrass, Large [11, 15]: 45
- Plant response rating, Crabgrass, Large [11, 20]: 5
- Plant response rating, Crabgrass, Large [11, 16]: 45
- Plant response rating, Crabgrass, Large [11, 17]: 75
- Crabgrass, Large plant response rating [11, 18]: 95
- Crabgrass, Large plant response rating [11, 19]: 20
- Galium plant response rating [12, 13]: 95
- Plant response rating, Galium [12, 14]: 100
- Plant response rating, Galium [12, 15]: 100
- Plant response rating, Galium [12, 20]: 98
- Plant response rating, Galium [12, 16]: 100
- Plant response rating, Galium [12, 17]: 100
- Galium plant response rating [12, 18]: 100
- Galium plant response rating [12, 19]: 100

SMILES: Cc1ccc2sc(C)c(-c3c(OC(=O)C(C)(C)C)c(C)nn(C)c3=O)c2c1 [Compound 26]
- Soybean plant response rating [1, 13]: 5
- Plant response rating, Soybean [1, 14]: 10
- Plant response rating, Soybean [1, 15]: 10
- Soybean plant response rating [1, 19]: 5
- Ragweed plant response rating [2, 13]: 15
- Plant response rating, Ragweed [2, 14]: 85
- Plant response rating, Ragweed [2, 15]: 90
- Ragweed plant response rating [2, 19]: 70
- Barnyardgrass plant response rating [3, 13]: 20
- Plant response rating, Barnyardgrass [3, 14]: 30
- Plant response rating, Barnyardgrass [3, 15]: 35
- Barnyardgrass plant response rating [3, 19]: 25
- Wheat plant response rating [4, 13]: 0
- Plant response rating, Wheat [4, 14]: 0
- Plant response rating, Wheat [4, 15]: 5
- Wheat plant response rating [4, 19]: 0
- Johnsongrass plant response rating [5, 13]: 5
- Plant response rating, Johnsongrass [5, 14]: 5
- Plant response rating, Johnsongrass [5, 15]: 5
- Johnsongrass plant response rating [5, 19]: 5
- Nutsedge, Yellow plant response rating [6, 13]: 5
- Plant response rating, Nutsedge, Yellow [6, 14]: 20
- Plant response rating, Nutsedge, Yellow [6, 15]: 25
- Nutsedge, Yellow plant response rating [6, 19]: 10
- Lambsquarters plant response rating [7, 13]: 75
- Plant response rating, Lambsquarters [7, 14]: 90
- Plant response rating, Lambsquarters [7, 15]: 98
- Lambsquarters plant response rating [7, 19]: 85
- Foxtail, Giant plant response rating [8, 13]: 15
- Plant response rating, Foxtail, Giant [8, 14]: 40
- Plant response rating, Foxtail, Giant [8, 15]: 65
- Foxtail, Giant plant response rating [8, 19]: 25
- Oilseed Rape plant response rating [9, 13]: 0
- Plant response rating, Oilseed Rape [9, 14]: 5
- Plant response rating, Oilseed Rape [9, 15]: 5
- Oilseed Rape plant response rating [9, 19]: 0
- Waterhemp plant response rating [10, 13]: 75
- Plant response rating, Waterhemp [10, 14]: 85
- Plant response rating, Waterhemp [10, 15]: 95
- Waterhemp plant response rating [10, 19]: 85
- Crabgrass, Large plant response rating [11, 13]: 5
- Plant response rating, Crabgrass, Large [11, 14]: 20
- Plant response rating, Crabgrass, Large [11, 15]: 25
- Crabgrass, Large plant response rating [11, 19]: 20
- Galium plant response rating [12, 13]: 90
- Plant response rating, Galium [12, 14]: 95
- Plant response rating, Galium [12, 15]: 95
- Galium plant response rating [12, 19]: 95

Source: patent US10597388B2, “Pyridazinone herbicides” (FMC CORPORATION, priority 2014, dated 2020)
